# Experimental data as given in ChEMBL document CHEMBL1157601, “1-Alkyl-4-phenyl-6-alkoxy-1H-quinazolin-2-ones: a novel series of potent calcium-sensing receptor antagonists” (J Med Chem, 2010).
# The source made the active and inactive calls. The rule behind the calls is not given here.
# Experiments:
# [1] = biological target: T1, Extracellular calcium-sensing receptor (Homo sapiens, UniProt P41180); experiment: Antagonist activity at human CaSR expressed in CCL39 cells assessed as inhibition of extracellular calcium-induced intracellular calcium transient by FLIPR assay; format: functional, cell-based
# T1 sequence (P41180 whole entry): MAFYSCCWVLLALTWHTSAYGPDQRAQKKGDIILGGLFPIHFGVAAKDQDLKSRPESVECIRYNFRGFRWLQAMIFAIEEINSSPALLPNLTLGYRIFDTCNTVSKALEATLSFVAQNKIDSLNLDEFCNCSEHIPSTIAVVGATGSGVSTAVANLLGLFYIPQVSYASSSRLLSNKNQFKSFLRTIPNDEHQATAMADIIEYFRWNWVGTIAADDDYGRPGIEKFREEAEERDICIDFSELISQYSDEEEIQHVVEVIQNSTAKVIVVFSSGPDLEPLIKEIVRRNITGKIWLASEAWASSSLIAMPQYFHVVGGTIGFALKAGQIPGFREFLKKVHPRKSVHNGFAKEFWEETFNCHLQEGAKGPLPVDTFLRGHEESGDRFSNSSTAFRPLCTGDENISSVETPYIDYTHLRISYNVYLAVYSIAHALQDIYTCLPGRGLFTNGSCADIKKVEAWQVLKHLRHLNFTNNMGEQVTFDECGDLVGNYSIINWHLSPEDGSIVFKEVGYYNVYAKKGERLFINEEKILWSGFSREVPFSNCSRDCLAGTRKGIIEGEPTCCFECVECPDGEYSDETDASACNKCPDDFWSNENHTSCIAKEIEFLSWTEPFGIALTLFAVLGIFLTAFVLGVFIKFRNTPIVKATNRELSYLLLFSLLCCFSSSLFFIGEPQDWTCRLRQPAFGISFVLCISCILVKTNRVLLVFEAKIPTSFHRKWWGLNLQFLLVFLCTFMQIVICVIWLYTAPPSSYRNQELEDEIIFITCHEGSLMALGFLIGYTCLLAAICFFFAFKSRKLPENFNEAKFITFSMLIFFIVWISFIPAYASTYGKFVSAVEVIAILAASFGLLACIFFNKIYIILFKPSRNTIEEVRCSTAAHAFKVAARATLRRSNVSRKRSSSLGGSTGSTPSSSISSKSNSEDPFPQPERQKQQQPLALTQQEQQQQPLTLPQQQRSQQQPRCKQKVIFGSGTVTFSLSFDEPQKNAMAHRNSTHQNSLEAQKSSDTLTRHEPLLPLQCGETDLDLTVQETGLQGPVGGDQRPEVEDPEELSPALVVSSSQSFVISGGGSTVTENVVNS
# [2] = system: Rattus norvegicus; experiment: Induction of PTH release in iv dosed Wistar rat by radioimmunoassay; format: functional, organism-based
# [3] = Aqueous solubility at pH 1.0; format: physicochemical
# [4] = Aqueous solubility at pH 6.8; format: physicochemical
# [5] = Oral bioavailability in rat; format: ADME, organism-based; settings: in vivo
# [6] = system: Canis familiaris; experiment: Induction of PTH release in Beagle dog at 3 mg/kg, po by radioimmunoassay; format: functional, Canis lupus familiaris
# [7] = system: Rattus norvegicus; experiment: Induction of PTH release in Wistar rat assessed as PTH Cmax in blood at 3 mg/kg, po by radioimmunoassay; format: functional
# [8] = system: Canis familiaris; experiment: Induction of PTH release in Beagle dog assessed as PTH Cmax in blood at 0.3 mg/kg, po by radioimmunoassay; format: functional, Canis lupus familiaris
# [9] = system: Rattus norvegicus; experiment: Induction of PTH release in Wistar rat assessed as PTH Cmax in blood at 30 mg/kg, po by radioimmunoassay; format: functional
SMILES,IC50 [1] [nM],Activity [2],further results
C#CCOc1ccc2c(c1)c(-c1ccc(C(C)C)cc1)nc(=O)n2Cc1ccc(CC)cc1,4.2,Active,–
CC(C)Oc1ccc2c(c1)c(-c1ccc(C(C)C)cc1)nc(=O)n2C(C)C,2700,Active,–
COc1ccc2c(c1)c(-c1ccc(OC(C)C)cc1)nc(=O)n2C(C)C,> 30000,Active,–
COc1ccc2c(c1)c(-c1ccc(C(C)C)cc1)nc(=O)n2C(C)C,1400,Active,–
C=CCOc1ccc2c(c1)c(-c1ccc(C(C)C)cc1)nc(=O)n2C(C)C,180,Active,–
C#CCOc1ccc2c(c1)c(-c1ccc(C(C)C)cc1)nc(=O)n2Cc1ccc(OCC(=O)O)cc1,12.6,Active,–
C#CCOc1ccc2c(c1)c(-c1ccc(C(C)C)cc1)nc(=O)n2Cc1ccc(C(C)C)cc1,27,Active,–
C#CCOc1ccc2c(c1)c(-c1ccc(C(C)C)cc1)nc(=O)n2Cc1cccc(NC(=O)CN2CCN(CCOC)CC2)c1,13,Active,solubility [3]: > 200 µg/mL; solubility [4]: 20 µg/mL; bioavailability [5]: 1%
CCCN(CCC)c1ccc2c(c1)c(-c1ccc(C(C)C)cc1)nc(=O)n2C(C)C,2900,Active,–
C#CCOc1ccc2c(c1)c(-c1ccc(C(C)C)cc1)nc(=O)n2Cc1cccc(C)c1,1.8,Active,–
CCCNc1ccc2c(c1)c(-c1ccc(C(C)C)cc1)nc(=O)n2C(C)C,1100,Active,–
CCN(CC)c1ccc2c(c1)c(-c1ccc(C(C)C)cc1)nc(=O)n2C(C)C,520,Active,–
COc1ccc2c(c1)c(-c1ccc(C3CC3)cc1)nc(=O)n2C(C)C,3300,Active,–
C#CCOc1ccc2c(c1)c(-c1ccc(C(C)C)cc1)nc(=O)n2Cc1ccc(OC)c(OCC)c1 [ATF-936],1.4,Active,–
CC(C)c1ccc(-c2nc(=O)n(C(C)C)c3ccc(O)cc23)cc1,15900,Active,–
CCNc1ccc2c(c1)c(-c1ccc(C(C)C)cc1)nc(=O)n2C(C)C,460,Active,–
C#CCN(CC#C)c1ccc2c(c1)c(-c1ccc(C(C)C)cc1)nc(=O)n2C(C)C,120,Active,–
COc1ccc2c(c1)c(-c1ccc(-c3ccccc3)cc1)nc(=O)n2C(C)C,5500,Active,–
C#CCOc1ccc2c(c1)c(-c1ccc(C(C)C)cc1)nc(=O)n2Cc1cccc(NC(=O)CN2CCN(CCCN(C)C)CC2)c1,8.1,Active,solubility [3]: > 200 µg/mL; solubility [4]: 100 µg/mL; bioavailability [5]: 8%
COc1ccc2c(c1)c(-c1ccccc1)nc(=O)n2C(C)C,> 30000,Active,–
C#CCNc1ccc2c(c1)c(-c1ccc(C(C)C)cc1)nc(=O)n2C(C)C,30,Active,–
C#CCOc1ccc2c(c1)c(-c1ccc(C(C)C)cc1)nc(=S)n2Cc1cccc(OCCO)c1,0.4,Active,–
C=CCN(C)c1ccc2c(c1)c(-c1ccc(C(C)C)cc1)nc(=O)n2C(C)C,230,Active,–
C#CCOc1ccc2c(c1)c(-c1ccc(C(C)C)cc1)nc(=O)n2Cc1ccc(C)cc1,1.6,Active,–

SMILES,IC50 [1] [nM],Activity [2],further results
C#CCOc1ccc2c(c1)c(-c1ccc(C(C)C)cc1)nc(=O)n2Cc1cccc(NC(=O)CN2CCN(C)CC2)c1,2.4,Active,solubility [3]: > 200 µg/mL; solubility [4]: 20 µg/mL; bioavailability [5]: 1%
C#CCOc1ccc2c(c1)c(-c1ccc(C(C)C)cc1)nc(=O)n2Cc1ccccc1,4.4,Active,–
CC(C)c1ccc(-c2nc(=O)n(Cc3ccccc3)c3ccc(O)c(CC4CC4)c23)cc1,2.5,Active,–
C#CCOc1ccc2c(c1)c(-c1ccc(C(C)C)cc1)nc(=O)n2Cc1ccc(OC)cc1,4.2,Active,–
C#CCOc1ccc2c(c1)c(-c1ccc(C(C)C)cc1)nc(=O)n2Cc1cccc(OC)c1,2.7,Active,–
C#CCOc1ccc2c(c1)c(-c1ccc(C(C)C)cc1)nc(=O)n2Cc1cccc(OCCO)c1,7.3,Active,–
COc1ccc2c(c1)c(-c1ccc(C(=O)O)cc1)nc(=O)n2C(C)C,> 30000,Active,–
COc1ccc2c(c1)c(-c1ccc(C)cc1)nc(=O)n2C(C)C,> 30000,Active,–
CCOc1ccc2c(c1)c(-c1ccc(C(C)C)cc1)nc(=O)n2C(C)C,2200,Active,–
CCCCOc1ccc2c(c1)c(-c1ccc(C(C)C)cc1)nc(=O)n2C(C)C,3700,Active,–
CCCc1c(O)ccc2c1c(-c1ccc(C(C)C)cc1)nc(=O)n2Cc1ccccc1,6.6,Active,–
CC#CCOc1ccc2c(c1)c(-c1ccc(C(C)C)cc1)nc(=O)n2C(C)C,170,Active,–
C=CCNc1ccc2c(c1)c(-c1ccc(C(C)C)cc1)nc(=O)n2C(C)C,70,Active,–
C#CCOc1ccc2c(c1)c(-c1ccc(C(C)C)cc1)nc(=O)n2Cc1ccc(OCC)cc1,19,Active,–
CCc1ccc(-c2nc(=O)n(C(C)C)c3ccc(OC)cc23)cc1,2100,Active,–
CC(C)c1ccc(-c2nc(=O)n(C(C)C)c3ccc(NCc4ccccc4)cc23)cc1,10000,Active,–
C#CCOc1ccc2c(c1)c(-c1ccc(C(C)C)cc1)nc(=O)n2Cc1cccc(OCC(=O)O)c1,3.4,Active,–
C#CCOc1ccc2c(c1)c(-c1ccc(C(C)C)cc1)nc(=O)n2C(C)C,9,Active,solubility [3]: 20 µg/mL; Activity [6]: 50 pg·h/mL; solubility [4]: 20 µg/mL; Activity [7]: 280 pgequiv/ml; Activity [8]: 300 pgequiv/ml; Activity [9]: 150 pgequiv/ml; bioavailability [5]: 20%
COc1ccc2c(c1)c(-c1ccc(C(C)(C)C)cc1)nc(=O)n2C(C)C,2100,Active,–
C#CCOc1ccc2c(c1)c(-c1ccc(C(C)C)cc1)nc(=O)n2Cc1cccc(CC)c1,13,Active,–
CCCOc1ccc2c(c1)c(-c1ccc(C(C)C)cc1)nc(=O)n2C(C)C,1100,Active,–
C=CCc1c(O)ccc2c1c(-c1ccc(C(C)C)cc1)nc(=O)n2Cc1ccccc1,3.9,Active,–
COC(=O)c1ccc(-c2nc(=O)n(C(C)C)c3ccc(OC)cc23)cc1,> 30000,Active,–
